Measurements from PMC3515450, “Mechanistic and Structural Understanding of Uncompetitive Inhibitors of Caspase-6” (PLoS ONE, 2012).
Like-named read-outs stand apart in the source and are kept apart here.

Target: T1, caspase-6 (Homo sapiens, UniProt P55212)
T1 construct: Residues 24-179 and 194-293 from caspase-6 cDNA (Origene) were cloned into pET-24b and pET-23b vectors; 6x histidine tag (C); made in house; host or cells: E. coli BL21 (DE3) pLysS
T1 sequence (P55212 24-179): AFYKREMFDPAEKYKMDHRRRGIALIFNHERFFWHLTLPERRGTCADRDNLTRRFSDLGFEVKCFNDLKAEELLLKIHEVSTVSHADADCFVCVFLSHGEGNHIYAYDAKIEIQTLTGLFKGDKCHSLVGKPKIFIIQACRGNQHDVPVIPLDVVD
T1 sequence (P55212 194-293): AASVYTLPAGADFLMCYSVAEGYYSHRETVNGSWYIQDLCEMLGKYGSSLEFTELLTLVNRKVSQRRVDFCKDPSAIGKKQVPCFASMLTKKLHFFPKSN
Assay: Caspase-6 enzymatic assay with fluorogenic tetrapeptide substrates
Format: biochemical
Protocol: The in vitro enzymatic caspase assays utilize synthetic tetrapeptide substrates labeled with the fluorophores Rhodamine110 (R110) or 7-amino-4-methylcoumarin (AMC) at the P1 aspartic acid (Asp) residue. All assays were performed in 384-well plates in 12 µL reaction volume consisting of enzyme, substrate and indicated concentration of inhibitor or DMSO in assay buffer (50 mM HEPES [pH 7.0], 25 mM MgSO4, 0.5 mM EGTA, 5 mM Glutathione (GSH), 0.01% Triton X-100 containing 0.1% Bovine Gamma Globulin (BGG)). All inhibitors were serially diluted in 100% DMSO prior to dilution in assay buffer and transfer to assay plate. DMSO was diluted into assay buffer similarly for blank wells (no enzyme or compound) and final DMSO concentration was 1%. The concentration of caspase-6 used in enzymatic reactions typically varied between 1–10 nM depending on substrate used. Unless otherwise indicated, substrate concentration was within 3-fold of the determined Kmapparent (5 µM (Ac-VEID)2R110 [Kmapp = 8 µM]; 5 µM (Ac-DEVD)2R110 [Kmapp = 8 µM]; 25 µM (Ac-IETD)2R110 [Kmapp = 70 µM]; 25 µM (Ac-WEHD)2R110 [Kmapp = 70 µM]; 10µM Ac-VEID-AMC [Kmapp = 16µM]; 5 µM Ac-VEID-R110 [Kmapp = 8 µM]). The concentration of substrate utilized in selectivity assays for each caspase isoform was also held as close to Kmapparent as reasonably achievable (Table S1). Caspases-3 and -7 were expressed and purified at Genentech as the catalytic domain consisting of large p20 and small p10 subunits without prodomain. For all caspase enzymatic assays, the reaction plate was incubated at room temperature for 40 minutes and then read on Envision (Perkin Elmer) fluorescent plate reader at excitation/emission wavelengths of 485/535 nm (R110) or 350/450 nm (AMC). […]
The endpoint fluorescent emission (RFU) in each well was plotted as a function of inhibitor concentration and the 50% inhibition (IC50) values were determined using a nonlinear least squares fit of the data to a four parameter equation using Prism 5.0 software (GraphPad Software, San Diego, CA). […] Ki values for Compound 3 were calculated using this equation: Ki = IC50/(Km/[S] +1). Concentration-response curves for each inhibitor were normalized to zero and 100% based on no enzyme or DMSO control, respectively. For steady-state kinetic analysis, initial reaction velocity (RFU/minute) was plotted against substrate concentration at each inhibitor concentration and the data was fit to a hyperbolic Michaelis-Menten model using Prism 5.0 software. Km (µM) and Vmax (RFU/minute) were calculated by using this equation: v = Vmax • [S]/Km+[S] where v = initial reaction velocity at indicated substrate concentration (S). Vmax values were normalized to zero and 100% based on no enzyme or DMSO control, respectively.
Expression and purification of caspase-6 for enzymatic assays: Human caspase-6 was expressed as the mature enzyme using a split construct. Residues 24-179 and 194-293 from caspase-6 cDNA (Origene) were cloned into pET-24b and pET-23b vectors (Novagen) respectively; the small subunit contained a C-terminal 6x histidine tag. Vectors were cotransfected into the E.coli strain BL21 (DE3) pLysS (Stratagene). Cells were grown from a single colony in 6L of 2xYT supplemented with ampicillin and kanamycin at 37 °C to an OD of ~ 0.5 and were subsequently cooled to 16 °C before overnight induction with 0.2 mM IPTG. Cells were harvested by centrifugation, resuspended in 100 mM NaCl, 100 mM Tris, pH 8.0, and lysed.

In the case of `COc1ccc(-c2cc(C(=O)N[C@@H](CO)Cc3cccc(C#N)c3)co2)cc1OC` [Compound 3], the Ki ((VEID)2R110 substrate, calculated from IC50) is reported as 4 nM, the “fold weaker with (DEVD)2R110 than with (VEID)2R110 substrate” value (caspase-6) is reported as about 44 fold and the IC50 (caspase-6, (DEVD)2R110 substrate, read-out: IC50) is reported as 481 nM. The IC50 (caspase-6, (IETD)2R110 substrate, read-out: inhibition of (IETD)2R110 cleavage) was about 100000 nM, the “binding efficiency index (BEI; pIC50/molecular weight)” value (caspase-6, (VEID)2R110) was 19.7 and the IC50 (caspase-6, (WEHD)2R110 substrate, not inhibited up to this concentration, read-out: inhibition of (WEHD)2R110 cleavage) was over 100000 nM. For the same compound, the IC50 (caspase-6, monovalent VEID-AMC substrate, read-out: IC50) was 14000 nM, the IC50 (caspase-6 cleavage of (VEID)2R110 substrate, read-out: IC50 (potency)) was 11 nM and the “selectivity for caspase-6 cleavage of (VEID)2R110 compared to other caspase family members tested” value (versus caspases-3 and -7) was “near absolute selectivity”.
